From patent US7157017B2, “Fungicidal compositions and methods using cyanodithiocarbimates” (Buckman Laboratories International, Inc., priority 2003, dated 2007)

Assays:
Aspergillus niger = test: Inhibition of growth of Aspergillus niger in liquid MSY medium (96-well microplate, OD 686 nm); assay type: cell-based; conditions: MSY broth, four days at 28° C. in the dark, complete inhibition = OD≦0.05, test levels given as ppm
Description: The antifungal activities of compounds of formula (I) were measured by determining the inhibition of growth of Aspergillus niger in a standard liquid medium. The liquid growth medium is described as a solution of mineral salts+yeast extract (MSY). The MSY broth was prepared as described in ASTM G 21–70^1, and amended with glucose (10 g liter^−1) and yeast extract (1 g liter^−1). An aliquot (250 μL) of sterile medium was dispensed into each test well of a standard 96-well microplate (Corning No. 430247). Stock solutions of test compounds were prepared by dissolving the materials in 9:1 (v/v) solution of acetone:methanol. Appropriate volumes of stock solutions were added to the test wells in order to achieve the desired ppm levels. Each test well (plus controls) was then inoculated with 5 μL of a standardized suspension of Aspergillus niger. The cell suspension was prepared by suspending viable cells from a slant of potato dextrose agar into sterile, deionized water. The suspension was then adjusted to provide OD686=0.28. This density contains approximately 2.5×10^7 CFU mL^−1 (CFU=Colony Forming Units). The microplates were incubated in the dark for four days at 28° C. The optical density for each well at 686 nm was then recorded automatically using a SpectraMax 340 microplate reader (Molecular Devices Corp., Sunnyvale, Calif.). All wells were visually inspected in order to corroborate data from the instrument. […] The results are shown in Table 2. ^1“Standard Practice for Determining Resistance of Synthetic Polymeric Materials to Fungi”,ASTM Standards on Materials and Environmental Microbiology, 1st. Ed., 1987.

[1] = tested on: fungal growth (mold) on wet blue hide; test: Performance testing in a tannery: wet blue test pieces in mold-infested tropical chamber; conditions: methyl carbitol-based formulation containing 30% w/w, 0.1% by weight in float (300 ppm active ingredient), chrome tanning of cowhides; 47 wet blue pieces, four weeks in tropical chamber
Description: A methyl carbitol-based formulation containing 30% w/w of hexyl chloromethyl cyanodithiocarbimate was tested in a commercial tannery. Eighty-two cowhides were subjected to a standard production run using chrome tanning. The test formulation was added to the float (tanning liquid) at a concentration of 0.1% by weight providing a concentration of 300 ppm of active ingredient hexyl chloromethyl cyanodithiocarbimate. At the completion of the tanning process, five tanned hides (“wet blues”) were chosen randomly. Numerous test pieces (12×14 cm) were cut from the butt, belly, and neck regions of each of the five hides. A total of 47 test pieces of wet blue obtained were coded relative to hide source and position, and each piece was suspended in a tropical chamber. The tropical chamber was a mold-infested humidity chamber designed to severely challenge the test fungicide applied during the tanning process. Each test piece was visually examined on a weekly basis for four weeks for the presence or absence and extent of possible mold growth. […] This is the type of performance desired of a fungicide by the hide tanning industry.

Row | SMILES | Antifungal MIC (Aspergillus niger) | presence or absence and extent of mold growth on test pieces [1]
1 | CC(C)SC(=NC#N)SCCl [Cl, —CH2(CH3)2, isopropyl chloromethyl cyanodithiocarbimate] | 0.5 | 
2 | N#CN=C(SCCl)SCc1ccccc1 [Cl, —CH2C6H5, benzyl chloromethyl cyanodithiocarbimate] | 1.0 | 
3 | C=CCSC(=NC#N)SCCl [Cl, —CH2CHC═CH2, allyl chloromethyl cyanodithiocarbimate] | 1.0 | 

More lines, main results first:

Row | Antifungal MIC (Aspergillus niger) | SMILES | presence or absence and extent of mold growth on test pieces [1]
4 | 0.5 | CCCSC(=NC#N)SCCl [Cl, —(CH2)2CH3, propyl chloromethyl cyanodithioicarbimate] | 
5 | 0.2 | CCCCCCSC(=NC#N)SCCl [Cl, —(CH2)5CH3, hexyl chloromethyl cyanodithiocarbimate] | free of fungal growth
